PubChem BioAssay (NCI)
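Exposure lasted 48 hours, with cells grown in 96-well plates and compounds tested at five concentrations. GI50 is the concentration that inhibits growth by half. The concentration for full growth arrest is given as TGI.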

Assays:
Assay in all cases: inhibition of tumour cell growth, NCI panel, 48 h
SK-MEL-2 melanoma = system: SK-MEL-2 melanoma
DU-145 prostate = system: DU-145 prostate
LOX IMVI melanoma = system: LOX IMVI melanoma
MDA-MB-231 breast = system: MDA-MB-231 breast
HCT-15 colon = system: HCT-15 colon
M14 melanoma = system: M14 melanoma
MOLT-4 leukemia = system: MOLT-4 leukemia
MDA-MB-435 = system: MDA-MB-435
SF-539 CNS = system: SF-539 CNS
SK-MEL-28 melanoma = system: SK-MEL-28 melanoma
A498 renal = system: A498 renal
SF-295 CNS = system: SF-295 CNS
HT29 colon = system: HT29 colon
CAKI-1 renal = system: CAKI-1 renal
SK-OV-3 ovarian = system: SK-OV-3 ovarian
SF-268 CNS = system: SF-268 CNS
RPMI-8226 leukemia = system: RPMI-8226 leukemia
NCI-H522 lung = system: NCI-H522 lung
NCI-H460 lung = system: NCI-H460 lung
HCC-2998 colon = system: HCC-2998 colon
MCF7 breast = system: MCF7 breast
CCRF-CEM leukemia = system: CCRF-CEM leukemia
HOP-92 NSCLC = system: HOP-92 NSCLC
NCI/ADR-RES ovarian = system: NCI/ADR-RES ovarian
UO-31 renal = system: UO-31 renal
KM12 colon = system: KM12 colon
BT-549 breast = system: BT-549 breast
SN12C renal = system: SN12C renal
T-47D breast = system: T-47D breast
K-562 leukemia = system: K-562 leukemia
PC-3 prostate = system: PC-3 prostate
A549 NSCLC = system: A549 NSCLC
SNB-19 CNS = system: SNB-19 CNS
IGROV1 ovarian = system: IGROV1 ovarian
NCI-H23 lung = system: NCI-H23 lung
COLO 205 colon = system: COLO 205 colon
OVCAR-5 ovarian = system: OVCAR-5 ovarian
786-0 renal = system: 786-0 renal
OVCAR-3 ovarian = system: OVCAR-3 ovarian
RXF 393 renal = system: RXF 393 renal
ACHN renal = system: ACHN renal
EKVX NSCLC = system: EKVX NSCLC
OVCAR-8 ovarian = system: OVCAR-8 ovarian
TK-10 renal = system: TK-10 renal
HCT-116 colon = system: HCT-116 colon
HOP-62 NSCLC = system: HOP-62 NSCLC
U251 CNS = system: U251 CNS
HS 578T breast = system: HS 578T breast
UACC-257 melanoma = system: UACC-257 melanoma
SW-620 colon = system: SW-620 colon
SK-MEL-5 melanoma = system: SK-MEL-5 melanoma
SNB-75 CNS = system: SNB-75 CNS
NCI-H226 lung = system: NCI-H226 lung
UACC-62 melanoma = system: UACC-62 melanoma
OVCAR-4 ovarian = system: OVCAR-4 ovarian

## CC(=O)O[C@H]1[C@@H]2OC(=O)C3(CC3)C2C[C@H]2O[C@]2(C)CC/C=C(\C)CCC[C@@H]1C (stereo not given in full)
SK-MEL-2 melanoma
  GI50: 19.5 µM
  TGI: 49.5 µM
DU-145 prostate
  GI50: 19.6 µM
  TGI: 39.1 µM
LOX IMVI melanoma
  GI50: 15.8 µM
  TGI: 46.2 µM
MDA-MB-231 breast
  GI50: 20.5 µM
  TGI: 48.7 µM
HCT-15 colon
  GI50: 26.8 µM
  TGI: 70 µM
M14 melanoma
  GI50: 19.1 µM
  TGI: 43.6 µM
MOLT-4 leukemia
  GI50: 18.1 µM
  TGI: 41.3 µM
MDA-MB-435
  GI50: 24.2 µM
  TGI: 54.3 µM
SF-539 CNS
  GI50: 23.3 µM
  TGI: 50.8 µM
SK-MEL-28 melanoma
  GI50: 36.7 µM
  TGI: > 100 µM
A498 renal
  GI50: 27.4 µM
  TGI: > 100 µM
SF-295 CNS
  GI50: 40.2 µM
  TGI: > 100 µM
HT29 colon
  GI50: 36.8 µM
  TGI: > 100 µM
CAKI-1 renal
  GI50: 19.8 µM
  TGI: 42.1 µM
SK-OV-3 ovarian
  GI50: 80.5 µM
  TGI: > 100 µM
SF-268 CNS
  GI50: 27.7 µM
  TGI: > 100 µM
RPMI-8226 leukemia
  GI50: 23.8 µM
  TGI: 55.2 µM
NCI-H522 lung
  GI50: 21.1 µM
  TGI: 48.4 µM
NCI-H460 lung
  GI50: 24.6 µM
  TGI: 58.2 µM
HCC-2998 colon
  GI50: 19.8 µM
  TGI: 50.9 µM
MCF7 breast
  GI50: 37.1 µM
  TGI: > 100 µM
CCRF-CEM leukemia
  GI50: 17.2 µM
  TGI: 37.8 µM
HOP-92 NSCLC
  GI50: 4.58 µM
  TGI: 63 µM
NCI/ADR-RES ovarian
  GI50: 23.3 µM
  TGI: 67.5 µM
UO-31 renal
  GI50: 25.5 µM
  TGI: 64.2 µM
KM12 colon
  GI50: 18.4 µM
  TGI: 36.5 µM
BT-549 breast
  GI50: 18.7 µM
  TGI: 46.2 µM
SN12C renal
  GI50: 22.7 µM
  TGI: 49.7 µM
T-47D breast
  GI50: 43.7 µM
  TGI: > 100 µM
K-562 leukemia
  GI50: 14.3 µM
  TGI: 37.7 µM
PC-3 prostate
  GI50: 19 µM
  TGI: 49.6 µM
A549 NSCLC
  GI50: 20.3 µM
  TGI: 46 µM
SNB-19 CNS
  GI50: 62.4 µM
  TGI: > 100 µM
IGROV1 ovarian
  GI50: 16.4 µM
  TGI: 45.2 µM
NCI-H23 lung
  GI50: 22.1 µM
  TGI: > 100 µM
COLO 205 colon
  GI50: 34 µM
  TGI: > 100 µM
OVCAR-5 ovarian
  GI50: 76.5 µM
  TGI: > 100 µM
786-0 renal
  GI50: 25.8 µM
  TGI: 92 µM
OVCAR-3 ovarian
  GI50: 17.5 µM
  TGI: 32.9 µM
RXF 393 renal
  GI50: 14.8 µM
  TGI: 37.7 µM
ACHN renal
  GI50: 21 µM
  TGI: 44.2 µM
EKVX NSCLC
  GI50: 30.1 µM
  TGI: > 100 µM
OVCAR-8 ovarian
  GI50: 27.8 µM
  TGI: > 100 µM
TK-10 renal
  GI50: 23.9 µM
  TGI: 46.9 µM
HCT-116 colon
  GI50: 15.7 µM
  TGI: 37.3 µM
HOP-62 NSCLC
  GI50: 37.7 µM
  TGI: > 100 µM
U251 CNS
  GI50: 22.6 µM
  TGI: 49.9 µM
HS 578T breast
  GI50: 19 µM
  TGI: 50.2 µM
UACC-257 melanoma
  GI50: 43.4 µM
  TGI: > 100 µM
SW-620 colon
  GI50: 23.7 µM
  TGI: 55.9 µM
SK-MEL-5 melanoma
  GI50: 14.8 µM
  TGI: 29 µM
SNB-75 CNS
  GI50: 38.1 µM
  TGI: > 100 µM
NCI-H226 lung
  GI50: 24.1 µM
  TGI: 66.5 µM
UACC-62 melanoma
  GI50: 17.1 µM
  TGI: 46.1 µM
OVCAR-4 ovarian
  GI50: 38 µM
  TGI: > 100 µM
